# Article PMC5110648, “Coupled binding mechanism of three sodium ions and aspartate in the glutamate transporter homologue GltTk” (Nature Communications, 2016)
# Target: T1, GltTk (Thermococcus kodakarensis, UniProt Q5JID0)
# T1 construct: gene TK0986; C-terminally His8-tagged, pBAD24-derived plasmid, E. coli MC1061; purified in decyl maltoside; trimer
# Assay: isothermal titration calorimetry; crystal structure […] Å
# Format: binding
# Settings: eight Na+ concentrations (apparent affinity strongly Na+-dependent); 10 mM Hepes KOH pH 8, 100 mM KCl, 0.15% DM, 25 °C; transport substrate site
# T1 sequence (Q5JID0 entry or part of it): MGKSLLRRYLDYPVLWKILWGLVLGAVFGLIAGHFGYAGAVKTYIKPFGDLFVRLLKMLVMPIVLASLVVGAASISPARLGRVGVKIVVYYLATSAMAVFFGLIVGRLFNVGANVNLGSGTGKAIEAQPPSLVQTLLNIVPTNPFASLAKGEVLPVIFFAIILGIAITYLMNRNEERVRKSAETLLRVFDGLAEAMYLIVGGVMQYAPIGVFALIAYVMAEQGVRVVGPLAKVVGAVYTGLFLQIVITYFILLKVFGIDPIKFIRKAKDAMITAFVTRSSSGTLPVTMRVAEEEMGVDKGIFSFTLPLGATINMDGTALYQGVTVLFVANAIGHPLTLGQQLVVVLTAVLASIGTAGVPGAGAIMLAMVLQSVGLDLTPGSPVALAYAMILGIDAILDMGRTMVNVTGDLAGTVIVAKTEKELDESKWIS
smiles,measurement,value
N[C@@H](CC(=O)O)C(=O)O [L-aspartate],Apparent affinity,Apparent affinity of GltTk for aspartate as a function of Na^+ concentration
